Measurements taken from patent US20070275935A1, “Estratriene Derivatives” (priority 2003, published 2007).

Assays:
[1] = test system: Human airway smooth muscle (HASM) cells; experiment: Thrombin-induced proliferation of human airway smooth muscle (HASM) cells, cell number after 48 h; type: cell-based; settings: for IC50: Homo sapiens, negative log of the concentration that reduces the thrombin-induced proliferative response by 50%, pIC50 of 4.00 = inactive, read-out: HASM-Thr pIC50 (converted); for HASM- Thr pIC25 / HASM- Thr pIC75: two site model, thrombin-induced proliferation; for HASM- Thr pIC25: first phase (inhibition up to 50%); for HASM- Thr pIC75: second phase (inhibition up to 100%)
Description: Human airway smooth muscle (HASM) cells were cultured from macroscopically normal bronchi (0.5-2 cm diameter) obtained from lung resection or heart-lung transplant specimens provided by the Alfred Hospital (Melbourne) according to methods published in detail previously (Fernandes et al., 1999).
Approximately 0.1 g of smooth muscle was stripped from the wall of the bronchus for each cell culture. Dissected tissue was immersed in Dulbecco's modified Eagle's medium (DMEM) (Flow Laboratories, Scotland), supplemented with 100 U/mL penicillin G (CSL, Australia) and 100 ug/mL streptomycin (CSL, Australia). The tissue was rinsed in phosphate buffered saline (PBS; Oxoid, England) and the airway smooth muscle was chopped into 2 mm^3 pieces and digested for 2 hours in DMEM containing elastase (0.5 mg/mL: Worthington Biochemical, USA) followed by a 12 hour incubation in DMEM containing collagenase (1 mg/mL) (Worthington Biochemical, USA), at 37° C. with agitation.
The resulting cell suspension was centrifuged and washed three times in phosphate buffered saline (PBS). Following the last centrifugation step, the cells were resuspended in 25 mL of DMEM supplemented with L-glutamine (2 mM: Sigma, USA), penicillin G (100 U/mL), streptomycin (100 μg/mL), amphotericin B (2 μg/mL: Wellcome, UK) and heat-inactivated FCS (10% v/v: CSL, Australia) and seeded into 25 cm^2 culture flasks. The primary isolates were incubated for 7 to 14 days to reach confluence.
Cells were harvested weekly by 10 min exposure to trypsin (0.5%: CSL, Australia) and EDTA (1 mM in PBS: BDH, Australia) and passaged at a 1:3 ratio into 75 cm^2 flasks.
The activity of the compounds has been established in cell culture by exploring their effects on mitogen-induced increases in cell number. We investigated the effects of 2MEO and its analogues, 4NO and 4NOM, on the proliferation of HASM cells in response to the proliferative stimulus of either thrombin of basic fibroblast growth factor (bFGF). Cells were seeded onto 6-well plates at a density of 1.5×10^4 cells cm^2, made quiescent by removal of serum-containing media for 24 hours and then stimulated for 48 h with either thrombin (0.3 U/ml) or bFGF (300 pM). The test compounds were pre-incubated with HASM cells for 30 minutes before the addition of thrombin. At the end of the 48 hour incubation period, cells were detached from the culture plate by trypsin (0.5% w/v in PBS containing 1 mM EDTA), incubated for 5 minutes at ambient temperature in PBS containing 0.5% (w/v) trypan blue, washed twice (2% FCS in PBS), isolated by centrifugation (12,000×g, 5 min) and resuspended in 200 μl 2% FCS in PBS for counting in a haemocytometer chamber.
Data are expressed as a percentage of the cell number in vehicle treated wells and are presented as the mean and standard error of the mean.
The potency of the compounds in regulating thrombin-induced proliferation of human airway smooth muscle (HASM) was assessed in cells maintained in culture as described above. The potencies are presented as pIC50 values (Column A of Table 4) denoting the negative log of the concentration that reduces the proliferative response by 50%. […] When the single phase model was determined to be more appropriate, the values of pIC25 and pIC75 were not calculated or shown in the table.

Estrogen Receptor (ER) = target: T1, Estrogen Receptor (ER) (Rattus norvegicus, UniProt P06211); experiment: Estrogen receptor binding assay, 3H-estradiol displacement from rat uterine cytosol; settings: 3H-estradiol displacement, cytosolic preparations of rat uterus; pIC50 of 4.00 = inactive; read-out: ER-RLB pIC50 (converted)
T1 construct: using rat uterine cytosol as a source of ER; from tissue; host or cells: rat uterus, cytosol fraction (30000 x g supernatant)
T1 sequence (P06211 1-600): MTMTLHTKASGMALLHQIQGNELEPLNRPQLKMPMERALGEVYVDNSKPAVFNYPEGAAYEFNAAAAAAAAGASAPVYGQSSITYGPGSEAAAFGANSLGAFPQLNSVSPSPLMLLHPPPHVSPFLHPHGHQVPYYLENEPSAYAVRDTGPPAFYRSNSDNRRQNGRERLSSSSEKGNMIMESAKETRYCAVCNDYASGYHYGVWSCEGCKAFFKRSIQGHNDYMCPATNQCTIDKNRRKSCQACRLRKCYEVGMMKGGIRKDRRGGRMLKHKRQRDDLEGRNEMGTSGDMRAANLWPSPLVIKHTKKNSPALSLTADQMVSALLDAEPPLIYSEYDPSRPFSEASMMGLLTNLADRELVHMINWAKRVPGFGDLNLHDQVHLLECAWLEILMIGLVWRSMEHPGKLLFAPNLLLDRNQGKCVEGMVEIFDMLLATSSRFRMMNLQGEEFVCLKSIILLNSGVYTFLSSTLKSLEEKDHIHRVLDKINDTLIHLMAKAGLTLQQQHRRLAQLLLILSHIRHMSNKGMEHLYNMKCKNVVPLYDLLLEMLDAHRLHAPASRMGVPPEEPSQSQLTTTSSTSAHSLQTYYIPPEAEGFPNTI
Description: Uteri (6-10 per batch) were isolated from Brown Norway rats (250-350g), washed free from blood in saline and homogenised in 10 mM Tris buffer (pH 7.4, 1.5 mM EDTA, 10% w/v glycerol, 1 mM phenylmethylsulfonylfluoride) using an Ultra Turrax homogeniser for 3 by 15 s bursts with intervals of 1 min on ice.
Nuclear material and cellular debris were removed by centrifugation at 750×g at 4° C. for 10 min (Sorvall RT7); the cytosol component was prepared by centrifugation at 30000×g for 120 min at 4° C. in a Beckman JM1 centrifuge. The cytosol was diluted to approximately 1 mg/ml protein (rat uterine extract) determined using the Bradford method (Biorad).
Separation of bound from free radioligand was achieved by the addition of 500 μL of dextran-coated charcoal (400 mg dextran clinical grade C and 2g of charcoal, Norit A in 100 mL of Tris buffer) and centrifugation at 4° C. in a Sorval RT7 at 2000×g for 10 min.

[2] = test system: type II airway epithelial cell line, A549; experiment: Proliferation of A549 cells in response to 5% FCS; type: cell-based, human; settings: Homo sapiens, A549; proliferation in response to 5% FCS; pIC50 of 4.00 = inactive; read-out: A549 PIC50 (converted)
Description: The effects of 4NO were evaluated in a number of non-smooth muscle cell types including the type II airway epithelial cell line, A549 (ATCC accession number ATCC CCL-185 Lung carcinoma human) (FIG. 2); the human breast tumour cell line, MCF7, (ATTC accession number ATCC HTB-22 breast adenocarcinoma, human) which expresses the estrogen receptor (FIG. 3); and in bovine aortic endothelial cells (BAEC) (FIG. 4).
The effects of test compounds were examined on proliferation of A549 cells in response to 5% fetal calf serum (FCS). Analogues were pre-incubated with A549 cells for 30 min before the addition of FCS. The incubation continued for 48 h before cell enumeration. Data are expressed as a percentage of the cell number in vehicle treated wells and are presented as the mean and standard error of the mean. Similarly the effects of 2MEO and 4NO on proliferation of MCF7 in response to 5% FCS or epidermal growth factor (EGF, 300 pM) were examined, as were the effects of 2MEO and 4NO on proliferation of BAEC in response to 5% FCS. The incubation parameters were the same as described above and results are presented as the mean and standard error of the mean.
This assay was also used to evaluate the ability of other compounds to inhibit the proliferation of non-smooth muscle cells MCF7 and A549 (described above) in response to 5% FCS. The results of this assay are presented in Table 4 (columns G and H respectively). The potency of the compounds was considerably less in inhibiting proliferation of these cell lines than it was for HASM. These observations support the contention that there are cell type-specific targets for the actions of these compounds. Such assays may also be adopted to examine the effect of other disclosed compounds on these cells or on other non-smooth muscle cells of interest.

Work on COc1cc2c(cc1O)/C(=N/OCc1cccc(C#N)c1)C[C@@H]1[C@@H]2CC[C@]2(C)[C@@H](O)CC[C@@H]12 [CP-DM-4-52, 2-methoxy-6-(3-cyanobenzyloxy)iminoestradiol] yielded an IC50 [1] of 0.955 µM and an IC50 (Estrogen Receptor (ER)) of 0.398 µM.

C[C@]12CC[C@@H]3c4ccc(O)cc4/C(=N/OCc4cc(F)cc(F)c4)C[C@H]3[C@@H]1C[C@@H](O)[C@@H]2O [CP-DM-4-88, 6-(3,5-difluorobenzyloxy)iminoestriol] showed an IC50 [1] of 15.8 µM.

In the case of COc1cc2c(cc1O)/C(=N/OCc1cccc(C#N)c1)C[C@@H]1[C@@H]2CC[C@]2(C)/C(=N/O)CC[C@@H]12 [CP-DM-4-51, 2-methoxy-6-(3-cyanobenzyloxy)iminoestrone-17-oxime], the IC50 [1] is reported as 4.37 µM, the “HASM- Thr pIC25” value [1] is reported as 5.46 and the “HASM- Thr pIC75” value [1] is reported as 5.26. The IC50 (Estrogen Receptor (ER)) was 34.7 µM.

With COc1cc2c(cc1O)/C(=N/OCc1ccc([N+](=O)[O-])cc1)C[C@@H]1[C@@H]2CC[C@]2(C)[C@@H](OC(C)=O)CC[C@@H]12 [CP-DM-4-91, 2-Methoxy-6-(4-nitrobenzyloxy)iminoestradiol-17-acetate] the IC50 [1] was 6.31 µM and the IC50 [2] was 10 µM.

For COc1cc2c(cc1O)/C(=N/OCc1ccc(OC(F)(F)F)cc1)C[C@@H]1[C@@H]2CC[C@]2(C)[C@@H](O)CC[C@@H]12 [CP-DM-4-64, 2-methoxy-6-(4-trifluoromethoxybenzyloxy)iminoestradiol], the IC50 [1] was 2.45 µM, the “HASM- Thr pIC25” value [1] was 6.56 and the “HASM- Thr pIC75” value [1] was 4.81. The IC50 (Estrogen Receptor (ER)) was 1.58 µM.

Work on COc1cccc(CO/N=C2\C[C@@H]3[C@H](CC[C@]4(C)/C(=N/O)CC[C@@H]34)c3cc(OC)c(O)cc32)c1 [CP-DM-4-66, 2-methoxy-6-(3-methoxybenzyloxy)iminoestrone-17-oxime] yielded an IC50 [1] of 10 µM.

For COc1cc2c(cc1O)/C(=N/OCc1ccc(C#N)cc1)C[C@@H]1[C@@H]2CC[C@]2(C)[C@@H](O)CC[C@@H]12 [CP-DM-4-37, 6-(4-cyanobenzyloxy)imino-2-methoxyestradiol], the IC50 [1] was 12.9 µM and the IC50 (Estrogen Receptor (ER)) was 6.46 µM.

COc1cc2c(cc1O)/C(=N/OCc1cccc(OC(F)(F)F)c1)C[C@@H]1[C@@H]2CC[C@]2(C)/C(=N/O)CC[C@@H]12 [CP-DM-4-67, 2-methoxy-6-(3-trifluoromethoxybenzyloxy)iminoestrone-17-oxime] was tested, and the IC50 [1] was 10 µM.

COc1cc2c(cc1O)/C(=N/OCc1ccc(C)cc1)C[C@@H]1[C@@H]2CC[C@]2(C)/C(=N/O)CC[C@@H]12 [CP-DM-4-76, 2-methoxy-6-(4-methylbenzyloxy)iminoestrone-17-oxime] gave an IC50 [1] of 4.27 µM.

COc1cc2c(cc1O)/C(=N/OCc1ccccc1[N+](=O)[O-])C[C@@H]1[C@@H]2CC[C@]2(C)[C@@H](O)CC[C@@H]12 [CP-DM-3-124, 2-methoxy-6-(2-nitrobenzyloxy)iminoestradiol] was tested, and the IC50 [1] was 0.0447 µM, the “HASM- Thr pIC25” value [1] was 9.35 and the “HASM- Thr pIC75” value [1] was 6.36. It also gave an IC50 (Estrogen Receptor (ER)) of 0.891 µM.

For COc1cc2c(cc1O)/C(=N/OCc1cccc(C(F)(F)F)c1)C[C@@H]1[C@@H]2CC[C@]2(C)/C(=N/O)CC[C@@H]12 [CP-DM-3-118, 2-methoxy-6-(3-trifluoromethylbenzyloxy)iminoestrone-17-oxime], the IC50 [1] was 2.95 µM and the IC50 (Estrogen Receptor (ER)) was 20.9 µM.

COc1cc2c(cc1O)/C(=N/OCc1cccc(OC(F)(F)F)c1)C[C@@H]1[C@@H]2CC[C@]2(C)[C@@H](O)CC[C@@H]12 [CP-DM-4-63, 2-methoxy-6-(3-trifluoromethoxybenzyloxy)iminoestradiol] was tested, and the IC50 [1] was 0.347 µM, the “HASM- Thr pIC25” value [1] was 7.70 and the “HASM- Thr pIC75” value [1] was 5.62. The IC50 (Estrogen Receptor (ER)) was 0.135 µM.

With CO/N=C1\CC[C@H]2[C@@H]3C/C(=N\OCc4ccc([N+](=O)[O-])cc4)c4cc(O)c(OC)cc4[C@H]3CC[C@]12C [CP-DM-4-75, 6-(4-nitrobenzyloxy)imino-2-methoxyestrone-17-methyloxime] the IC50 [1] was 2.57 µM.

In the case of COc1cc2c(cc1O)/C(=N/OCc1ccncc1)C[C@@H]1[C@@H]2CC[C@]2(C)[C@@H](O)CC[C@@H]12 [CP-DM-4-16, 2-methoxy-6-(4-pyridylmethyloxy)iminoestradiol], the IC50 [1] is reported as 1.45 µM, the “HASM- Thr pIC25” value [1] is reported as 6.57 and the “HASM- Thr pIC75” value [1] is reported as 5.19.

C#C[C@]1(O)CC[C@H]2[C@@H]3C/C(=N\OCc4ccc([N+](=O)[O-])cc4)c4cc(O)ccc4[C@H]3CC[C@@]21C [CP-DM-4-89, 6-(4-nitrobenzyloxy)imino-17-ethinyl-estradiol] was tested, and the IC50 (Estrogen Receptor (ER)) was 5.62 µM.

With COc1cccc(CO/N=C2\C[C@@H]3[C@H](CC[C@]4(C)[C@@H](O)CC[C@@H]34)c3cc(OC)c(O)cc32)c1 [CP-DM-4-62, 2-methoxy-6-(3-methoxybenzyloxy)iminoestradiol] the IC50 [1] was 2.19 µM, the “HASM- Thr pIC25” value [1] was 5.69 and the “HASM- Thr pIC75” value [1] was 5.63. It also gave an IC50 (Estrogen Receptor (ER)) of 1 µM.
